Measurements: the NIST ThermoML archive (doi:10.1021/je030107c)
± gives the expanded uncertainty stated by the source.

What was measured:
[1] = refractive index (Na D-line) (dimensionless); xn = mol fraction of the nth substance listed; details: 101.3 kPa, Liquid, Standard Abbe refractometry
[2] = xn = mol fraction of the nth substance listed; details: 101.3 kPa, Liquid; for viscosity: Capillary tube (Ostwald / Ubbelohde) method; for speed of sound: Linear variable-path acoustic interferometer; for mass density: Pycnometric method

CCN(CC)CC [triethylamine] + C1COCCO1
refractive index ([1]; 298.15 K, x2 = 0): 1.3983 ± 0.001
refractive index ([1]; 298.15 K, x2 = 0.1104): 1.3996 ± 0.001
refractive index ([1]; 298.15 K, x2 = 0.2044): 1.4014 ± 0.001
refractive index ([1]; 298.15 K, x2 = 0.3028): 1.4032 ± 0.001
refractive index ([1]; 298.15 K, x2 = 0.398): 1.4048 ± 0.0011
refractive index ([1]; 298.15 K, x2 = 0.4946): 1.4068 ± 0.0011
refractive index ([1]; 298.15 K, x2 = 0.5986): 1.4095 ± 0.0011
refractive index ([1]; 298.15 K, x2 = 0.6952): 1.4117 ± 0.0011
refractive index ([1]; 298.15 K, x2 = 0.7996): 1.4147 ± 0.0011
refractive index ([1]; 298.15 K, x2 = 0.8934): 1.4176 ± 0.0011
refractive index ([1]; 303.15 K, x2 = 0): 1.3955 ± 0.001
refractive index ([1]; 303.15 K, x2 = 0.1104): 1.3969 ± 0.001
refractive index ([1]; 303.15 K, x2 = 0.2044): 1.3985 ± 0.001
refractive index ([1]; 303.15 K, x2 = 0.3028): 1.4002 ± 0.001
refractive index ([1]; 303.15 K, x2 = 0.398): 1.402 ± 0.0011
refractive index ([1]; 303.15 K, x2 = 0.4946): 1.404 ± 0.0011
refractive index ([1]; 303.15 K, x2 = 0.5986): 1.4067 ± 0.0011
refractive index ([1]; 303.15 K, x2 = 0.6952): 1.409 ± 0.0011
refractive index ([1]; 303.15 K, x2 = 0.7996): 1.412 ± 0.0011
refractive index ([1]; 303.15 K, x2 = 0.8934): 1.4148 ± 0.0011
refractive index ([1]; 308.15 K, x2 = 0): 1.3926 ± 0.001
refractive index ([1]; 308.15 K, x2 = 0.1104): 1.3942 ± 0.001
refractive index ([1]; 308.15 K, x2 = 0.2044): 1.3956 ± 0.001
refractive index ([1]; 308.15 K, x2 = 0.3028): 1.3972 ± 0.001
refractive index ([1]; 308.15 K, x2 = 0.398): 1.3994 ± 0.0011
refractive index ([1]; 308.15 K, x2 = 0.4946): 1.4013 ± 0.0011
refractive index ([1]; 308.15 K, x2 = 0.5986): 1.4041 ± 0.0011
refractive index ([1]; 308.15 K, x2 = 0.6952): 1.4062 ± 0.0011
refractive index ([1]; 308.15 K, x2 = 0.7996): 1.4093 ± 0.0011
refractive index ([1]; 308.15 K, x2 = 0.8934): 1.4121 ± 0.0011
viscosity ([2]; 298.15 K, x2 = 0): 0.363 ± 0.003 mPa·s
viscosity ([2]; 298.15 K, x2 = 0.1104): 0.392 ± 0.003 mPa·s
viscosity ([2]; 298.15 K, x2 = 0.2044): 0.418 ± 0.003 mPa·s
viscosity ([2]; 298.15 K, x2 = 0.3028): 0.451 ± 0.004 mPa·s
viscosity ([2]; 298.15 K, x2 = 0.398): 0.494 ± 0.004 mPa·s
viscosity ([2]; 298.15 K, x2 = 0.4946): 0.542 ± 0.004 mPa·s
viscosity ([2]; 298.15 K, x2 = 0.5986): 0.613 ± 0.005 mPa·s
viscosity ([2]; 298.15 K, x2 = 0.6952): 0.697 ± 0.005 mPa·s
viscosity ([2]; 298.15 K, x2 = 0.7996): 0.815 ± 0.006 mPa·s
viscosity ([2]; 298.15 K, x2 = 0.8934): 0.958 ± 0.008 mPa·s
speed of sound ([2]; 298.15 K, x2 = 0): 1127 ± 2 m/s
speed of sound ([2]; 298.15 K, x2 = 0.1104): 1139 ± 2 m/s
speed of sound ([2]; 298.15 K, x2 = 0.2044): 1155 ± 2 m/s
speed of sound ([2]; 298.15 K, x2 = 0.3028): 1172 ± 2 m/s
speed of sound ([2]; 298.15 K, x2 = 0.398): 1189 ± 2 m/s
speed of sound ([2]; 298.15 K, x2 = 0.4946): 1210 ± 3 m/s
speed of sound ([2]; 298.15 K, x2 = 0.5986): 1234 ± 3 m/s
speed of sound ([2]; 298.15 K, x2 = 0.6952): 1260 ± 3 m/s
speed of sound ([2]; 298.15 K, x2 = 0.7996): 1290 ± 3 m/s
speed of sound ([2]; 298.15 K, x2 = 0.8934): 1318 ± 3 m/s
mass density ([2]; 298.15 K, x2 = 0): 723.1 ± 0.2 kg/m3
mass density ([2]; 298.15 K, x2 = 0.1104): 744.6 ± 0.3 kg/m3
mass density ([2]; 298.15 K, x2 = 0.2044): 764.5 ± 0.3 kg/m3
mass density ([2]; 298.15 K, x2 = 0.3028): 787.3 ± 0.3 kg/m3
mass density ([2]; 298.15 K, x2 = 0.398): 811.3 ± 0.3 kg/m3
mass density ([2]; 298.15 K, x2 = 0.4946): 838 ± 0.4 kg/m3
mass density ([2]; 298.15 K, x2 = 0.5986): 869.7 ± 0.4 kg/m3
mass density ([2]; 298.15 K, x2 = 0.6952): 902.3 ± 0.5 kg/m3
mass density ([2]; 298.15 K, x2 = 0.7996): 941.2 ± 0.5 kg/m3
mass density ([2]; 298.15 K, x2 = 0.8934): 979.8 ± 0.5 kg/m3
viscosity ([2]; 303.15 K, x2 = 0): 0.347 ± 0.003 mPa·s
viscosity ([2]; 303.15 K, x2 = 0.1104): 0.372 ± 0.003 mPa·s
viscosity ([2]; 303.15 K, x2 = 0.2044): 0.397 ± 0.003 mPa·s
viscosity ([2]; 303.15 K, x2 = 0.3028): 0.428 ± 0.003 mPa·s
viscosity ([2]; 303.15 K, x2 = 0.398): 0.466 ± 0.004 mPa·s
viscosity ([2]; 303.15 K, x2 = 0.4946): 0.512 ± 0.004 mPa·s
viscosity ([2]; 303.15 K, x2 = 0.5986): 0.575 ± 0.005 mPa·s
viscosity ([2]; 303.15 K, x2 = 0.6952): 0.652 ± 0.005 mPa·s
viscosity ([2]; 303.15 K, x2 = 0.7996): 0.76 ± 0.006 mPa·s
viscosity ([2]; 303.15 K, x2 = 0.8934): 0.889 ± 0.007 mPa·s
mass density ([2]; 303.15 K, x2 = 0): 718.5 ± 0.3 kg/m3
mass density ([2]; 303.15 K, x2 = 0.1104): 739.7 ± 0.3 kg/m3
mass density ([2]; 303.15 K, x2 = 0.2044): 759.5 ± 0.3 kg/m3
mass density ([2]; 303.15 K, x2 = 0.3028): 782.2 ± 0.3 kg/m3
mass density ([2]; 303.15 K, x2 = 0.398): 806.1 ± 0.4 kg/m3
mass density ([2]; 303.15 K, x2 = 0.4946): 832.8 ± 0.4 kg/m3
mass density ([2]; 303.15 K, x2 = 0.5986): 864.3 ± 0.4 kg/m3
mass density ([2]; 303.15 K, x2 = 0.6952): 896.8 ± 0.5 kg/m3
mass density ([2]; 303.15 K, x2 = 0.7996): 935.6 ± 0.5 kg/m3
mass density ([2]; 303.15 K, x2 = 0.8934): 974.2 ± 0.5 kg/m3
viscosity ([2]; 308.15 K, x2 = 0): 0.33 ± 0.003 mPa·s
viscosity ([2]; 308.15 K, x2 = 0.1104): 0.353 ± 0.003 mPa·s
viscosity ([2]; 308.15 K, x2 = 0.2044): 0.377 ± 0.003 mPa·s
viscosity ([2]; 308.15 K, x2 = 0.3028): 0.404 ± 0.003 mPa·s
viscosity ([2]; 308.15 K, x2 = 0.398): 0.438 ± 0.004 mPa·s
viscosity ([2]; 308.15 K, x2 = 0.4946): 0.481 ± 0.004 mPa·s
viscosity ([2]; 308.15 K, x2 = 0.5986): 0.538 ± 0.004 mPa·s
viscosity ([2]; 308.15 K, x2 = 0.6952): 0.608 ± 0.005 mPa·s
viscosity ([2]; 308.15 K, x2 = 0.7996): 0.705 ± 0.006 mPa·s
viscosity ([2]; 308.15 K, x2 = 0.8934): 0.821 ± 0.007 mPa·s
mass density ([2]; 308.15 K, x2 = 0): 713.6 ± 0.3 kg/m3
mass density ([2]; 308.15 K, x2 = 0.1104): 734.8 ± 0.3 kg/m3
mass density ([2]; 308.15 K, x2 = 0.2044): 754.6 ± 0.3 kg/m3
mass density ([2]; 308.15 K, x2 = 0.3028): 777.1 ± 0.3 kg/m3
mass density ([2]; 308.15 K, x2 = 0.398): 800.9 ± 0.4 kg/m3
mass density ([2]; 308.15 K, x2 = 0.4946): 827.5 ± 0.4 kg/m3
mass density ([2]; 308.15 K, x2 = 0.5986): 859 ± 0.4 kg/m3
mass density ([2]; 308.15 K, x2 = 0.6952): 891.5 ± 0.5 kg/m3
mass density ([2]; 308.15 K, x2 = 0.7996): 930 ± 0.5 kg/m3
mass density ([2]; 308.15 K, x2 = 0.8934): 968.5 ± 0.5 kg/m3
